Reference: ChEMBL document CHEMBL2321817, “Detecting allosteric sites of HIV-1 reverse transcriptase by X-ray crystallographic fragment screening” (J Med Chem, 2013)
Active and inactive are the calls of the source. The rule behind the calls is not given here.

Tests used:
[1] = target: Human immunodeficiency virus type 1 reverse transcriptase (Human immunodeficiency virus 1) (UniProt Q72547); test: Inhibition of wild type HIV-1 reverse transcriptase knuckles site at 1 mM after 30 mins by fluorescence assay
[2] = target: T1, Human immunodeficiency virus type 1 reverse transcriptase (Human immunodeficiency virus 1, UniProt Q72547); test: Inhibition of wild type HIV-1 reverse transcriptase knuckles site after 30 mins by fluorescence assay
[3] = target: T1, Human immunodeficiency virus type 1 reverse transcriptase; test: Inhibition of wild type HIV-1 reverse transcriptase incoming nucleotide binding site after 30 mins by fluorescence assay
[4] = target: Human immunodeficiency virus type 1 reverse transcriptase (Human immunodeficiency virus 1) (UniProt Q72547); test: Inhibition of wild type HIV-1 reverse transcriptase 428 site at 1 mM after 30 mins by fluorescence assay relative to control
[5] = target: T1, Human immunodeficiency virus type 1 reverse transcriptase; test: Inhibition of wild type HIV-1 reverse transcriptase 507 site incubated after 30 mins by fluorescence assay
[6] = target: T1, Human immunodeficiency virus type 1 reverse transcriptase; test: Inhibition of wild type HIV-1 reverse transcriptase p66/p51 NNRTI adjacent binding site after 30 mins by fluorescence assay
[7] = target: Human immunodeficiency virus type 1 reverse transcriptase (Human immunodeficiency virus 1) (UniProt Q72547); test: Inhibition of wild type HIV-1 reverse transcriptase p66/p51 399 site after 30 mins by fluorescence assay
[8] = target: Human immunodeficiency virus type 1 reverse transcriptase (Human immunodeficiency virus 1) (UniProt Q72547); test: Inhibition of wild type HIV-1 reverse transcriptase RNase H primer grip adjacent site after 30 mins by fluorescence assay

## NCc1ccc(OC(F)(F)F)cc1
[1]
  inhibition: inactive

## Oc1ccc(OC(F)(F)F)cc1
[2]
  IC50: 600 µM

## CN1CCN(c2ccc(C(=O)O)cc2)CC1
[3]
  IC50: 200 µM

## NCC(=O)Nc1ccc2[nH]c(=O)[nH]c2c1
[4]
  inhibition: 30%

## CN(CC(=O)N1CCCc2ccccc21)Cc1nc(=O)c2ccccc2[nH]1
[5]
  IC50: 150 µM

## CCOC(=O)c1cnn2ccccc12
[6]
  IC50: 350 µM

## Cc1c(CO)cnn1-c1ccc(F)cc1
[7]
  inhibition: inactive

## Cn1ncc(C(=O)O)c1-c1ccccc1
[8]
  inhibition: inactive
